Data set [1] is described as follows: Suitability of acids in 1:1 admixture: storage stability (appearance, HPLC). Particulars: for Most abundant impurity (area %): three months storage, HPLC. Type of data set: physicochemical. How it is done: The mixtures were prepared in duplicate for each sample, and stored in open top, 4 mL glass vials at (1) 60° C./dry heat and (2) 40° C. and 75% relative humidity (RH).
All admixture samples and the control samples stored at the 60° C. and dry heat condition remained as dry powders.
The HPLC traces analyses were conducted on an Agilent 1100 LC, equipped with Agilent Diode Array Detector and Chemstation Software using the conditions found in the table below.

The nature of data set [2]: Comparative pharmacokinetic study of F1 and F2 formulations. Particulars: 800 mg fixed dose, 23 healthy subjects. Type of data set: in vivo, human. How it is done:
A comparative pharmacokinetic study in healthy, human subjects was conducted comparing a 200 mg dosage strength of pharmaceutical composition F1 (as described in Example 11) with a 200 mg dosage strength pharmaceutical composition F2 (as described in Example 10).
Pharmaceutical compositions F1 and F2, along with and lansoprazole, were administered orally with approximately 240 mL of water, according to the randomization scheme. Lansoprazole was administered as 30 mg lansoprazole delayed-release capsules.
Subjects were randomized into two groups, A and B. Periods 1 and 2 were conducted as a crossover design under fasting conditions where all subjects received F1 and F2. […] A representative summary of Periods 1, 2, and 3 and the pharmaceutical compositions subjects in groups A and B will receive in each Period is found below.
Subjects were randomized and received 3 out of 4 treatments in one of the following sequences: […] (i.e., Periods 1 and 2 were conducted as a crossover design under fasting conditions [Treatments A and B]). […] Each subject received each of the 3 assigned treatments on one occasion.
Treatment A: 30 mg lansoprazole (1×30 mg capsule), for 9 consecutive days (within ±1 hour of dosing time on Day 1), with 800 mg F1 (4×200 mg capsules) administered under fasting conditions 1.5 hours after administration of lansoprazole on Day 4. […]

A short description of data set [3]: Single-dose food effect study in dogs. The note with it: formulation that did not comprise at least one acidulant. Type of data set: in vivo. An excerpt:
Such food effects can cause difficulty during human testing of drugs as the fed or fasted condition of the patient can cause exposure or bioavailability of drugs to vary widely.

Data set [4] concerns cancer having at least one molecular alteration in one or more of ALK, ROS1, TrkA, TrkB and TrkC. Briefly: Early clinical studies in humans (antitumor effects). Type of data set: in vivo. Particulars: patients having various forms of cancer.
The target in data set [5] is TrkB (Homo sapiens, UniProt Q16620). The note with it: cited from earlier work.
Sequence of TrkB (Q16620 32-822): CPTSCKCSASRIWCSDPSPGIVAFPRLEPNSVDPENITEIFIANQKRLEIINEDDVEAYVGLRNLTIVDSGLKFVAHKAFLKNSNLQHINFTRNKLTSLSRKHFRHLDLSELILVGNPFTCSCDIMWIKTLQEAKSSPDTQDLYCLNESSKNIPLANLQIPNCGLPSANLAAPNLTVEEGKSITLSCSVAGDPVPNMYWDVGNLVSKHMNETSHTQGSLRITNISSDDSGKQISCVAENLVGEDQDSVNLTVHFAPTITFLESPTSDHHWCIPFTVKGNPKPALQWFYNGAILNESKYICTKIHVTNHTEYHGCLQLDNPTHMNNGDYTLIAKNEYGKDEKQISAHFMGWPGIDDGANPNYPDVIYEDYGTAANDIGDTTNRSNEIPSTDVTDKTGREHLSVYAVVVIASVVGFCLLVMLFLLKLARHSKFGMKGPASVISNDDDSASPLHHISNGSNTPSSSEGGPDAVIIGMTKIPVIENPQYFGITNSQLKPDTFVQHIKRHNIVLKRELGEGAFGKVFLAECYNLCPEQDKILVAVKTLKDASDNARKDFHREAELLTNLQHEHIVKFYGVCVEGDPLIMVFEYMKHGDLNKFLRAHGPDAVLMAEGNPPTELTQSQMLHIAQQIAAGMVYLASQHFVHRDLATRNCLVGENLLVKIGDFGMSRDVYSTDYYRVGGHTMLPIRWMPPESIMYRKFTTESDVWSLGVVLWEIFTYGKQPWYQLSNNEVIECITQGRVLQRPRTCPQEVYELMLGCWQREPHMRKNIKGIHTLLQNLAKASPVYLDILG
Data set [6] concerns the target TrkC (Homo sapiens, UniProt Q16288). The note with it: cited from earlier work.
The target of data set [7] is ALK (Homo sapiens, UniProt Q9UM73). Particulars: cited from earlier work.
Sequence of ALK (Q9UM73 19-1620): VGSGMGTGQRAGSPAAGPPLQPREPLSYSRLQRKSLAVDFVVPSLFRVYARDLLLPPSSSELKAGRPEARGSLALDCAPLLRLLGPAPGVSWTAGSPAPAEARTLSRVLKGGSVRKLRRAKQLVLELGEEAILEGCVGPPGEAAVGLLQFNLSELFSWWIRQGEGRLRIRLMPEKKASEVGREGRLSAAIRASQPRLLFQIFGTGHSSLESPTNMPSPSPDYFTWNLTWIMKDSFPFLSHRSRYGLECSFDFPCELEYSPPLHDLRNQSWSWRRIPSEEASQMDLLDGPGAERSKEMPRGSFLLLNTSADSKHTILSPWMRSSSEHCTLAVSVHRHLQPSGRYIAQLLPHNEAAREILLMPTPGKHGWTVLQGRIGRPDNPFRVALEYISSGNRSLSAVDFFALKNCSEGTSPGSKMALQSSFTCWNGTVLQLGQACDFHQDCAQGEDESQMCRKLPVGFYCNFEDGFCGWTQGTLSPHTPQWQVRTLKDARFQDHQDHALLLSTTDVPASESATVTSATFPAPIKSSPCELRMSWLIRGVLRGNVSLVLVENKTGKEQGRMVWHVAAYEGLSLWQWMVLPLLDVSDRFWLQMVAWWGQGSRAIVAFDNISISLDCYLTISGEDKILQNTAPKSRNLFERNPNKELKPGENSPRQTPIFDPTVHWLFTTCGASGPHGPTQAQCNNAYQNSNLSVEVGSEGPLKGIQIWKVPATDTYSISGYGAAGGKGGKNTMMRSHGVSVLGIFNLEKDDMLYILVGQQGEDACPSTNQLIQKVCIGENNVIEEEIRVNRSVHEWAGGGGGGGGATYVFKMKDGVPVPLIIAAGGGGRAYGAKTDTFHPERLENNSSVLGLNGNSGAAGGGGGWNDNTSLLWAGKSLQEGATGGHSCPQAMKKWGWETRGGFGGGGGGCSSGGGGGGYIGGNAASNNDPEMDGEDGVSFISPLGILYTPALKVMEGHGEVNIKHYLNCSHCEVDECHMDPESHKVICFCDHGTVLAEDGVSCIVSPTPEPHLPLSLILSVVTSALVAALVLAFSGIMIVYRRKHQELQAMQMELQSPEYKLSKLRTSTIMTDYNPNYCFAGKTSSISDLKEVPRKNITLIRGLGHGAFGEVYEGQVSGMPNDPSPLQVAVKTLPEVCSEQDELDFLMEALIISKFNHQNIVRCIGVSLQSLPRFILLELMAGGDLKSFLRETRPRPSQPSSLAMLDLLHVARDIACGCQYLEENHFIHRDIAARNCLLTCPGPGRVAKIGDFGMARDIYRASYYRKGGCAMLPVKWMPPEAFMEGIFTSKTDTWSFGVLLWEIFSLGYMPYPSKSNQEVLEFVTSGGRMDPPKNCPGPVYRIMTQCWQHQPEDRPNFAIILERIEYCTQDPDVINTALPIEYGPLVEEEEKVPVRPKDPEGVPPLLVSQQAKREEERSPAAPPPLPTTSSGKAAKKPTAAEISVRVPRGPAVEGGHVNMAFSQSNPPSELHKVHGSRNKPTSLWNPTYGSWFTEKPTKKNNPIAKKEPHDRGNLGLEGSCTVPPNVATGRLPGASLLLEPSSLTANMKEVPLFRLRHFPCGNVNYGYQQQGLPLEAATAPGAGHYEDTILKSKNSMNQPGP
Data set [8] can be described thus: Early clinical studies in humans, formulation without acidulant (exposure). Particulars: for AUC higher when taken with food: formulation without acidulant.

Sequence of TrkC (Q16288 32-839): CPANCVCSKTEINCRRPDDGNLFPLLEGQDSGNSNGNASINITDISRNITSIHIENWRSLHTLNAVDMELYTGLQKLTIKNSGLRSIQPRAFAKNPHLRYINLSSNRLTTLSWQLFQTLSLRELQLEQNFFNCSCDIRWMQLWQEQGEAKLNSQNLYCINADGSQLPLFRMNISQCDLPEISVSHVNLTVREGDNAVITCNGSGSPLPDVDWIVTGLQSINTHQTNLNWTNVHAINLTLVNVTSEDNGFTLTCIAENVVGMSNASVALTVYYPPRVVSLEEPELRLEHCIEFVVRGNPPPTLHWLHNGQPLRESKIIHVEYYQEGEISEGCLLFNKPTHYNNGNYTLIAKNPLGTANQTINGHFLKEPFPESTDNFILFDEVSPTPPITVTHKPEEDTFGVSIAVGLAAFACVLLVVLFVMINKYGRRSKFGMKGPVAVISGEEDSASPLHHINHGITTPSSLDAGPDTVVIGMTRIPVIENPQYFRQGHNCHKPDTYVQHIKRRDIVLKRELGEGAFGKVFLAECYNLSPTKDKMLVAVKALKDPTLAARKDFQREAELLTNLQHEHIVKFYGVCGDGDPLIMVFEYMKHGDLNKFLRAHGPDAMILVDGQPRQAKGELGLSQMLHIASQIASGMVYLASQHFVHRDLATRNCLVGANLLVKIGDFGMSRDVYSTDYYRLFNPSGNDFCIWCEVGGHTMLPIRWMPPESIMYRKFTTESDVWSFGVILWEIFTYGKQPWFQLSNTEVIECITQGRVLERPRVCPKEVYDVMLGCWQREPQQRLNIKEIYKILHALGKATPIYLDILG

As for `CN1CCN(c2ccc(C(=O)Nc3n[nH]c4ccc(Cc5cc(F)cc(F)c5)cc34)c(NC3CCOCC3)c2)CC1` [N-[5-(3,5-difluorobenzyl)-1H-indazol-3-yl]-4-(4-methyl-piperazin-1-yl)-2-(tetrahydro-pyran-4-ylamino)-benzamide], the “Most abundant impurity (area %)” value in data set [1] (40° C./75% RH, listed as Control) turned out to be 0.13%; in data set [1] (60° C. Dry Heat), 0.13%. In data set [1] (13 days of storage, 40° C. and 75% RH), the physical state observed entry is recorded as “remained dry”. In data set [2], the “correlation of total exposure with body weight or body surface area” value was “did not correlate with body weight or body surface area”. In data set [3], the “exposure levels, fed compared to fasting conditions” value was “approximately 2 fold”. The antitumor effects entry in data set [4] is “antitumor effects”. Besides, the inhibition entry in data set [5], in data set [6] and in data set [7] was “potent inhibitor” in each case. Moreover, the results for the “AUC higher when taken with food” value in data set [8] (200 mg/m^2/day) and in data set [8] (400 mg/m^2/day) were “approximately 200%” and approximately 50%, respectively. Further, in data set [8] (both doses (200 and 400 mg/m^2/day)), the “Cmax higher with food” value is reported as “approximately 150%”. The “exposures with concomitant proton pump inhibitor drugs (PPIs), such as lansoprazole” value in data set [8] (some patients) is recorded as “variable”.

The values above are taken from patent US20190022089A1, “PHARMACEUTICAL COMPOSITIONS AND DOSAGE FORMS” (Ignyta, Inc., priority 2017, published 2019).
